Square brackets hold non-standard residues; d marks the D form. Peptide text beside a SMILES is read from it. * marks the point of attachment. Dolaproine = CO[C@@H]([C@@H]1CCCN1)[C@@H](C)C(=O)O; Dil = CC[C@H](C)[C@H](NC)[C@@H](CC(=O)O)OC; X1 = C[C@@H](N*)[C@@H](O)c1ccccc1; NMeV = CN[C@H](C(=O)O)C(C)C

In one experiment the test system is A20 lymphoma cells. The experiment can be described thus: Immunization with killed CD30-expressing A20 cells and A20 challenge (Example 24). To be noted: mice immunized 2 times with cells killed by the agent; compared to flash freezing; FIG. 24. The class given is in vivo. As to the method:
A20 cells expressing human CD30 were treated with CD30-Auristatin ADC (BV; SGN-35) or MMAE for 18 hrs. Alternatively, one aliquot of cells was f1ash frozen. Ficoll centrifugation of treated samples was performed to remove live cells. All samples were analyzed for apoptosis and viability by flow cytometry using annexin V/7AAD. Dying and dead cells were washed, resuspended in PBS, and intraperitoneally injected into mice. The mice were immunized 2 times, 7 days apart. Immunized mice rested for 7 additional days, and then were challenged with A20 lymphoma cells, and tumor growth or rejection was monitored over time.

A further experiment addresses CD40 (Homo sapiens, UniProt P25942). The settings on record: cited from earlier work.
For experiment [1], the system named is acute myeloid leukemia (AML). To be noted: administered alone; cited from earlier work.
A further experiment relates to Farage cells. In kind it is in vivo. To be noted: single agent, SEA-CD70 3 mg/kg or SGN-35 1 mg/kg.
The subject of a further experiment is CD30+CD8 T cells. The experiment can be described thus: Proliferation of activated CD30+CD8 T cells treated with CD30 directed vc-MMAE. The settings on record: anti-CD3-CD28 beads + 10 ng/mL IL-2, 4 days; vs isotype control; FIG. 2. In kind it is cell-based, human. As to the method:
Human primary CD8 T cells were labeled with CSFE and induced to undergo proliferation with anti-CD3-CD28 beads (1 bead per 4 T cells)+10 ng/mL IL-2 for 4 days. […] CD30+CD8 T cells were treated with either CD30 directed vc-MMAE (brentuximab vedotin; BV; SGN-35) or an isotype control. Cells were stained with LIVE/DEAD Fixable Dead Cell Stain (ThermoFisher) and live cells were counted via flow cytometry.

Chain of CD40 (P25942 21-277): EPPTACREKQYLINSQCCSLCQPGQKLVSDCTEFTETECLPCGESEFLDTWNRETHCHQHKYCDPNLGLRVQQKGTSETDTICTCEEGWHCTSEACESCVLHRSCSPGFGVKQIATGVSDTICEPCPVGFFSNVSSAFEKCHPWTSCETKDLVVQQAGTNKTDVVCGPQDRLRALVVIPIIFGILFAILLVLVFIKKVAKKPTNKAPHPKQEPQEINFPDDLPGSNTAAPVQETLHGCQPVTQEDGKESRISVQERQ

For `CC[C@H](C)[C@@H]([C@@H](CC(=O)N1CCC[C@H]1[C@H](OC)[C@@H](C)C(=O)N[C@H](C)[C@@H](O)c1ccccc1)OC)N(C)C(=O)[C@@H](NC(=O)[C@@H](NC)C(C)C)C(C)C` [MMAE, N-methylvaline-valine-dolaisoleuine-dolaproine-norephedrine] (H-[NMeV]V[Dil][Dolaproine]-X1), in the experiment on A20 lymphoma cells, the “immune responses rejecting implanted A20 cells” value is listed as “stronger immune responses”.

Consider “CP-870,893: a humanized IgG2 agonist antibody to CD40”, for which the “activity in solid tumor indications” value with CD40 (combined with paclitaxel or carboplatin or gemcitabine) was “encouraging activity”.

Turning to “CT-011: anti-PD-1 antibody, a humanized antibody”, the “response in treating acute myeloid leukemia (AML) at relapse” value in experiment [1] was “failed to show response”.

Turning to “Dacetuzumab: fucosylated humanized S2C6, agonistic CD40 monoclonal antibody”, the clinical activity result with CD40 (phase 1 study in NHL and phase 2 study in DLBCL) was “some clinical activity”.

Consider “SGN-35: CD30-targeting ADC containing MMAE conjugated to the monoclonal antibody cAC10 [reference compound]”, for which the “immune responses rejecting implanted A20 cells” value in the experiment with A20 lymphoma cells is “stronger immune responses”. In the experiment on Farage cells (day post implant, untreated 28.5), the “day at which tumors reached an average 5 fold increase of original size” value worked out at 46 days. Further, the “days post treatment at which tumors reached an average 5 fold increase” value with Farage cells (untreated 9.5) was 27 days post treatment. Further, the “cell proliferation of primary human CD30+CD8 T cells” value with CD30+CD8 T cells is “not significantly altered”.

These data come from patent publication US20230270877A1, “Combination Therapy” (Seagen Inc., priority 2020, published 2023).
